US6706663B2, “Herbicidal 3-heterocyclic substituted benzisothiazole and benzisoxazole compounds” (Wyeth, priority 2000, dated 2004)

Key:
[1] = tested on: ECHORC (Echinochloa oryzoides); test: Flooded paddy, preemergence weed control; type: in vivo, Echinochloa oryzoides (Ard.) Fritsch.; conditions: rated 3-4 weeks after treatment, 0-9 rating scale
In short: (§1)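 Flooded silt loam pots, seeds in upper 0.5 cm, water held 1.5–3 cm deep; greenhouse; visual 0-9 score vs control.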

[2] = tested on: TRZAWR (Wheat, Winter, cv Riband); test: Preemergence herbicidal evaluation; type: in vivo, Triticum aestivum; conditions: rated 4-5 weeks after treatment
In short: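 Seeds mixed with potting soil were planted atop about one inch of soil, then sprayed with test compound in aqueous acetone. Cups were kept in the greenhouse and rated visually 4–5 weeks after treatment on a 0–9 scale against untreated control.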

[3] = tested on: ECHCG (Echinochloa crus-galli); test: Postemergence herbicidal evaluation; type: in vivo, (L.) Beau; conditions: postemergence
In short: (§2)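 Seedlings grown for about two weeks were sprayed postemergence and then kept under standard greenhouse care. Injury was rated visually 4–5 weeks after treatment on a 0–9 scale against untreated controls, and ratings from repeat tests were averaged.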

[4] = tested on: ORYSAT (Rice, Tebonnet); test: Postemergence herbicidal evaluation; type: in vivo, Oryza sativa, (L.) Tebonnet; conditions: postemergence
In short: as §2

[5] = tested on: GLXMAW (Soybean, Williams); test: Preemergence herbicidal evaluation; type: in vivo, Glycine max, (L.) Merr. cv Williams; conditions: rated 4-5 weeks after treatment
[6] = tested on: ORYSAT (Rice, Tebonnet); test: Preemergence herbicidal evaluation; type: in vivo, Oryza sativa, (L.) Tebonnet; conditions: rated 4-5 weeks after treatment
[7] = tested on: CASOB (Cassia obtusifolia); test: Postemergence herbicidal evaluation; type: in vivo, L.; conditions: postemergence
In short: as §2

[8] = tested on: AMBEL (Ambrosia artemisifolia); test: Postemergence herbicidal evaluation; type: in vivo, L.; conditions: postemergence
In short: as §2

[9] = tested on: CHEAL (Chenopodium album); test: Postemergence herbicidal evaluation; type: in vivo, L.; conditions: postemergence
In short: as §2

[10] = tested on: ZEAMX (Corn, Field); test: Postemergence herbicidal evaluation; type: in vivo, Zea mays, L.; conditions: postemergence
In short: as §2

[11] = tested on: SAGPY (Sagittaria pygmaea); test: Flooded paddy, preemergence weed control; type: in vivo, L.; conditions: rated 3-4 weeks after treatment, 0-9 rating scale
In short: as §1

[12] = tested on: CYPIR (Cyperus iria); test: Flooded paddy, preemergence weed control; type: in vivo; conditions: rated 3-4 weeks after treatment, 0-9 rating scale
In short: as §1

[13] = tested on: IPOHE (Ipomoea hederacea); test: Preemergence herbicidal evaluation; type: in vivo, (L.) Jacq.; conditions: rated 4-5 weeks after treatment

SMILES | herbicidal rating, ECHORC ([1]; rate 0.0320 kg/ha) | herbicidal rating, ECHORC ([1]; rate 0.1250 kg/ha) | Preemergence herbicidal rating TRZAWR ([2]; Rate 0.0620 kg/ha) | Preemergence herbicidal rating TRZAWR ([2]; Rate 0.1250 kg/ha) | Preemergence herbicidal rating TRZAWR ([2]; Rate 0.2500 kg/ha) | ECHCG herbicidal rating ([3]; rate 0.0320 kg/ha) | ECHCG herbicidal rating ([3]; rate 0.0620 kg/ha) | ORYSAT herbicidal rating ([4]; rate 0.0320 kg/ha) | ORYSAT herbicidal rating ([4]; rate 0.0620 kg/ha) | Preemergence herbicidal rating GLXMAW ([5]; Rate 0.0620 kg/ha) | Preemergence herbicidal rating GLXMAW ([5]; Rate 0.1250 kg/ha) | Preemergence herbicidal rating GLXMAW ([5]; Rate 0.2500 kg/ha) | Preemergence herbicidal rating ORYSAT ([6]; Rate 0.0620 kg/ha) | Preemergence herbicidal rating ORYSAT ([6]; Rate 0.1250 kg/ha) | Preemergence herbicidal rating ORYSAT ([6]; Rate 0.2500 kg/ha) | CASOB herbicidal rating ([7]; rate 0.0320 kg/ha) | CASOB herbicidal rating ([7]; rate 0.0620 kg/ha) | AMBEL herbicidal rating ([8]; rate 0.0320 kg/ha) | AMBEL herbicidal rating ([8]; rate 0.0620 kg/ha) | CHEAL herbicidal rating ([9]; rate 0.0320 kg/ha) | further results
C=C1COC(c2nsc3ccc(-n4c(=O)cc(C(F)(F)F)n(C)c4=O)cc23)OC1 [Compound 58, 2,4(1H,3H)-pyrimidinedione, 1-methyl-3-[3-(5-methylene-m-dioxan-2-yl)-1,2-benzisothiazol-5-yl]-6-(trifluoromethyl)-] | 6.0 | 9.0 | 7.0 | 8.0 | 8.0 | 1.0 | 3.0 | 3.5 | 5.0 | 9.0 | 8.0 | 9.0 | 8.5 | 9.0 | 9.0 | 1.0 | 8.0 | 9.0 | 9.0 | 3.0 | CHEAL herbicidal rating ([9]; rate 0.0620 kg/ha): 5.0; ZEAMX herbicidal rating ([10]; rate 0.0320 kg/ha): 5.5; ZEAMX herbicidal rating ([10]; rate 0.0620 kg/ha): 5.5; herbicidal rating, SAGPY ([11]; rate 0.0320 kg/ha): 2.0; herbicidal rating, SAGPY ([11]; rate 0.1250 kg/ha): 5.0; herbicidal rating, CYPIR ([12]; rate 0.0320 kg/ha): 6.0; herbicidal rating, CYPIR ([12]; rate 0.1250 kg/ha): 9.0; Preemergence herbicidal rating IPOHE ([13]; Rate 0.0620 kg/ha): 6.5; Preemergence herbicidal rating IPOHE ([13]; Rate 0.1250 kg/ha): 7.5; Preemergence herbicidal rating IPOHE ([13]; Rate 0.2500 kg/ha): 9.0
Cc1cnn(-c2nsc3ccc(-n4c(=O)cc(C(F)(F)F)n(C)c4=O)cc23)c1 [Compound 59, 1-methyl-3-[3-(4-methylpyrazol-1-yl)-1,2-benzisothiazol-5-yl]-6-(trifluoromethyl)uracil] | 0.0 | 3.0 | 1.0 | 2.0 | 2.0 | 0.0 | 0.0 | 2.0 | 2.5 | 0.0 | 2.0 | 3.0 | 1.0 | 2.0 | 2.0 | 0.0 | 3.0 | 9.0 | 9.0 | 8.0 | herbicidal rating, ECHORC ([1]; rate 0.0080 kg/ha): 0.0; ECHCG herbicidal rating ([3]; rate 0.1250 kg/ha): 3.0; ORYSAT herbicidal rating ([4]; rate 0.1250 kg/ha): 2.5; CASOB herbicidal rating ([7]; rate 0.1250 kg/ha): 3.0; AMBEL herbicidal rating ([8]; rate 0.1250 kg/ha): 9.0; CHEAL herbicidal rating ([9]; rate 0.0620 kg/ha): 9.0; CHEAL herbicidal rating ([9]; rate 0.1250 kg/ha): 9.0; ZEAMX herbicidal rating ([10]; rate 0.0320 kg/ha): 5.5; ZEAMX herbicidal rating ([10]; rate 0.0620 kg/ha): 6.5; ZEAMX herbicidal rating ([10]; rate 0.1250 kg/ha): 7.0; herbicidal rating, SAGPY ([11]; rate 0.0080 kg/ha): 0.0; herbicidal rating, SAGPY ([11]; rate 0.0320 kg/ha): 0.0; herbicidal rating, SAGPY ([11]; rate 0.1250 kg/ha): 0.0; herbicidal rating, CYPIR ([12]; rate 0.0080 kg/ha): 0.0; herbicidal rating, CYPIR ([12]; rate 0.0320 kg/ha): 3.0; herbicidal rating, CYPIR ([12]; rate 0.1250 kg/ha): 9.0; Preemergence herbicidal rating IPOHE ([13]; Rate 0.0620 kg/ha): 0.0; Preemergence herbicidal rating IPOHE ([13]; Rate 0.1250 kg/ha): 1.0; Preemergence herbicidal rating IPOHE ([13]; Rate 0.2500 kg/ha): 3.0
